{"source": "patent US20150238637A1", "about": "“Blood-brain Barrier Epitopes and Uses Thereof” (NATIONAL RESEARCH COUNCIL OF CANADA, priority 2005, published 2015)", "key": {"[1]": {"test_system": "HCEC monolayers", "test": "Transport across the in vitro blood brain barrier model", "format": "cell-based, human", "conditions": "for effect on FC5 transport across the in vitro BBB model: 30 minutes preincubation", "protocol": "HCEC (80,000 cells/membrane) were seeded on a 0.5% gelatin coated Falcon tissue culture inserts (pore size-1 μm; surface area 0.83 cm^2) in 1 ml of growth medium. The bottom chamber of the insert assembly contained 2 ml of growth medium supplemented with the fetal human astrocyte-conditioned medium in a 1:1 (v/v) ratio (Muruganandam et al., 1997).\nTransport studies were performed 7 days post-seeding as described previously (Muruganandam et al., 1997; Muruganandam et al., 2002). Filter inserts were rinsed with transport buffer [phosphate buffered saline (PBS) containing 5 mM glucose, 5 mM MgCl2, 10 mM HEPES, 0.05% bovine serum albumin (BSA), pH 7.4] and allowed to equilibrate at 37° C. for 30 minutes. Experiments were initiated by adding 10 μg/ml FC5 to either apical or basolateral side of inserts containing either 0.5% gelatin-coated inserts without cells, control HCEC or HCEC pre-exposed to various pharmacological modulators for 30 min. Transport studies were conducted at 37° C. with plates positioned on a rotating platform stirring at 30-40 rpm. Aliquots (100 μl) were collected from the opposite chamber at various time intervals (5, 15, 30, 60, 90 minutes) and replaced with fresh buffer. The amount of FC5 transported across empty inserts or HCEC monolayers was determined by enzyme linked immunosorbent assay (ELISA) (see below). To control for HCEC membrane integrity and to estimate paracellular diffusion, the apical-to-basolateral and basolateral-to-apical clearance rates of [^14C]-sucrose were determined and calculated essentially as described previously (Muruganandam et al., 2002; Garberg et al., 2005) across the same monolayers used for FC5 transport studies. Sample-associated radioactivity in 50 μl aliquots was measured using a Mircobeta Trilux liquid scintillation counter (Wallac, Finland).\nClearance was calculated as Cl (ml)=CA/CI×VA, where CI is the initial tracer or sdAb concentration in the donor chamber, CA is the tracer or sdAb concentration in the accepter chamber, and VA is the volume of the acceptor chamber. […] The effects of pharmacological agents on FC5 transmigration was subsequently assessed at 30 min.\nTo measure the amount of FC5 transmigrated across the in vitro BBB model, 50 μl aliquots collected from the appropriate compartment were immobilized overnight at room temperature in a HisGrab nickel coated 96-well plate (Pierce). After blocking the plates with 2% BSA for 2 hours at room temperature, anti-c-Myc monoclonal antibody conjugated to HRP was added at a dilution of 1:5000 for 1 hour. After washing, the bound FC5 was detected with tetramethylbenzidine (TMB)/hydrogen peroxide substrate system. The signal was measured at […] on a microtiter plate reader. FC5 concentrations in collected aliquots were determined from a standard curve constructed using known FC5 concentrations."}, "[2]": {"test_system": "HCEC", "test": "Uptake into human cerebromicrovascular endothelial cells (immunofluorescence)", "format": "cell-based", "conditions": "data not shown; for effect on FC5 uptake into HCEC: 30 minutes preincubation", "protocol": "The uptake of FC5 into HCEC was tested 15-90 minutes after adding 5 μg/ml of FC5 in the absence or presence of various pharmacological modulators of endocytosis. To visualize the intracellular distribution of FC5, cells were fixed, permeabilized and probed with the anti-c-myc antibody (1:100; 1 hour) followed by incubation with FITC-labeled anti-mouse IgG (1:250; 1 hour)."}, "[3]": {"conditions": "5 μg/ml, 30 minutes pretreatment"}}}
{"molecule": "O=CC[C@@H](O)[C@H](O)[C@H](O)CO", "note": "[2-deoxyglucose]", "values": [{"measurement": "effect on FC5 transmigration", "setting": "[1]; 5 mM sodium azide and 5 mM 2-deoxyglucose together, 30 min, glucose-free medium", "result": "near-complete inhibition"}]}
{"molecule": "CN(C)CCCn1cc(C2=C(c3c[nH]c4ccccc34)C(=O)NC2=O)c2ccccc21", "note": "[BIM-1, bisindolyl-maleimide-1]", "values": [{"measurement": "reduction of FC5 transcytosis across HCEC", "setting": "[1]; BIM-1 5 μM, 30 minutes pre-incubation", "result": 25, "unit": "%"}]}
{"molecule": "CC[C@@]1([C@@H]2O[C@@H]([C@H]3O[C@@](O)(CO)[C@H](C)C[C@@H]3C)C[C@@H]2C)CC[C@H]([C@]2(C)CC[C@]3(C[C@H](O)[C@@H](C)[C@@H]([C@@H](C)[C@@H](OC)[C@H](C)C(=O)O)O3)O2)O1", "note": "[Monensin, monensin]", "values": [{"measurement": "inhibition at 25 µM", "setting": "[1]; Homo sapiens, HCEC, 0.5 h, monensin 25 μM, 30 minutes, 10 μg/ml FC5, read-out: inhibition of FC5 transcytosis across HCEC", "result": 34, "unit": "%"}]}
{"molecule": "N=C(N)NC(=O)c1nc(Cl)c(N)nc1N", "note": "[amiloride]", "values": [{"measurement": "effect on transendothelial migration of FC5", "setting": "[1]; amiloride 500 μM", "result": "no effect"}]}
{"molecule": "CN(C)CCCN1c2ccccc2Sc2ccc(Cl)cc21", "note": "[chlorpromazine]", "values": [{"measurement": "inhibition at 50 µg/mL", "setting": "[1]; Homo sapiens, HCEC, chlorpromazine 50 μg/ml, 30 minutes pretreatment, read-out: inhibition of FC5 transmigration across in vitro BBB model", "result": 52, "unit": "%"}]}
{"molecule": "CCCC(=O)Nc1ncnc2c1ncn2[C@@H]1O[C@@H]2COP(=O)(O)O[C@H]2[C@H]1OC(=O)CCC", "note": "[db-cAMP, dibutyryl-cAMP]", "values": [{"measurement": "effect on FC5 transcytosis across HCEC", "setting": "[1]; db-cAMP 500 μM, 30 minutes pre-incubation", "result": "not affected"}]}
{"molecule": "CCCCC[C@@H](O)[C@H]1C(=O)O[C@H](C)[C@@H](O)/C=C/C=C/C=C/C=C/C=C(\\C)[C@@H](O)C[C@H](O)C[C@H](O)C[C@H](O)C[C@H](O)C[C@H](O)C[C@@H]1O", "note": "[filipin]", "values": [{"measurement": "effect on FC5 transmigration across in vitro BBB model", "setting": "[1]; [3]", "result": "None of the caveolae-mediated endocytosis inhibitors tested affected"}]}
{"molecule": "O=c1c(-c2ccc(O)cc2)coc2cc(O)cc(O)c12", "note": "[genistein]", "values": [{"measurement": "effect on FC5 transcytosis across HCEC", "setting": "[1]; genistein 50 μM, 30 minutes pre-incubation", "result": "not affected"}]}
{"molecule": "COC(=O)Nc1nc2ccc(C(=O)c3cccs3)cc2[nH]1", "note": "[nocodazole]", "values": [{"measurement": "effect on FC5 transcytosis", "setting": "[1]; 20 μM, 30 minutes pre-incubation", "result": "did not interfere"}]}
{"molecule": "C[C@@H]1[C@H](O)[C@@H](C)/C=C/C=C/CC/C=C/C=C/C=C/C=C/C(O[C@H]2O[C@H](C)[C@@H](O)[C@H](N)[C@@H]2O)CC2O[C@](O)(CC(O)C(O)CCC(O)CC(O)CC(O)CC(=O)O[C@H]1C)CC(O)C2C(=O)O", "note": "(stereo partly shown) [nystatin]", "values": [{"measurement": "effect on FC5 transmigration across in vitro BBB model", "setting": "[1]; [3]", "result": "None of the caveolae-mediated endocytosis inhibitors tested affected"}]}
{"molecule": "C[C@@H]1O[C@@H](O[C@H]2C[C@@H](O)[C@]3(CO)[C@H]4[C@H](O)C[C@]5(C)[C@@H](C6=CC(=O)OC6)CC[C@]5(O)[C@@H]4CC[C@]3(O)C2)[C@H](O)[C@H](O)[C@H]1O", "note": "[ouabain]", "values": [{"measurement": "reduction of FC5 transport across HCEC", "setting": "[1]; ouabain 1 μM, 30 minutes pretreatment", "result": 40, "unit": "%"}]}
{"molecule": "chondroitin sulfate A", "values": [{"measurement": "effect on FC5 transcytosis across the BBB in vitro", "setting": "[1]; 10 μg/ml pre-incubation", "result": "did not affect"}]}
{"molecule": "chondroitin sulfate C", "values": [{"measurement": "effect on FC5 transcytosis across the BBB in vitro", "setting": "[1]; 10 μg/ml pre-incubation", "result": "did not affect"}]}
{"molecule": "heparin sulfate", "values": [{"measurement": "effect on FC5 transcytosis across the BBB in vitro", "setting": "[1]; heparin sulfate 50 U/ml pre-incubation", "result": "did not affect"}]}
{"molecule": "holo-transferrin", "values": [{"measurement": "effect on FC5 uptake", "setting": "[2]; 100-fold excess of holo-transferrin", "result": "not reduced"}, {"measurement": "effect on FC5 transendothelial transport", "setting": "[1]; 100-fold excess (1 mg/ml) of holo-transferrin, 10 μg/ml FC5, 30 minutes", "result": "not reduced"}]}
{"molecule": "mannan", "values": [{"measurement": "effect on FC5 transmigration", "setting": "[1]; mannan 1 mg/ml", "result": "did not affect"}]}
{"molecule": "methyl-β-cyclodextrin", "values": [{"measurement": "effect on FC5 transmigration across in vitro BBB model", "setting": "[1]; methyl-β-cyclodextrin 5 mM, 30 minutes pretreatment", "result": "None of the caveolae-mediated endocytosis inhibitors tested affected"}]}
{"molecule": "poly-L-lysine", "values": [{"measurement": "effect on FC5 uptake into HCEC", "setting": "[2]; poly-L-lysine 300 μM", "result": "Neither compound affected"}, {"measurement": "effect on FC5 transport across the in vitro BBB model", "setting": "[1]; poly-L-lysine 300 μM", "result": "Neither compound affected"}]}
{"molecule": "protamine sulfate", "values": [{"measurement": "effect on FC5 uptake into HCEC", "setting": "[2]; protamine sulfate 40 μg/ml", "result": "Neither compound affected"}, {"measurement": "effect on FC5 transport across the in vitro BBB model", "setting": "[1]; protamine sulfate 40 μg/ml", "result": "Neither compound affected"}]}
